Measured values as given in US8440639B2, “Combination compositions for reducing intraocular pressure” (Inotek Pharmaceuticals Corporation, priority 2010, dated 2013).
Counter-ions that a name gives are not always drawn.

target: T1, A1 receptor (Homo sapiens, UniProt P30542); assay: Adenosine A1 receptor affinity (Ki potency); format: binding
T1 sequence (P30542 1-326): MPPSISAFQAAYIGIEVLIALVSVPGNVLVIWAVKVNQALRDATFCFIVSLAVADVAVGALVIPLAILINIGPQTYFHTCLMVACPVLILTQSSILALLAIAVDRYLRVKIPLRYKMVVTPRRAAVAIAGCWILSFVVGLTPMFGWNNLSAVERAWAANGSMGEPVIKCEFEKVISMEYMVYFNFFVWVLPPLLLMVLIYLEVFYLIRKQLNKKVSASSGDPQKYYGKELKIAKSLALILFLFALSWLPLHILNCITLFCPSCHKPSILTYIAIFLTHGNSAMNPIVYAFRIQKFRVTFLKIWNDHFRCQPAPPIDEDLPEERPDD
From the text: As used herein, the term “A1 agonist” refers to an A1 agonist that has an affinity to the A1 receptor while simultaneously having a lower affinity for the A2 and A3 adenosine receptors.

Row | SMILES | Ki
1 | O=S(=O)(O)OC[C@H]1O[C@@H](n2cnc3c(NC4CCCC4)ncnc32)[C@H](O)[C@@H]1O [Compound C, sodium((2R,3S,4R,5R)-5-(6-(cyclopentylamino)-9H-purin-9-yl)-3,4-dihydroxytetrahydrofuran-2-yl)methyl sulfate] | 4.05 nM
2 | O=S(=O)(O)OC[C@H]1O[C@@H](n2cnc3c(NC4CCCCC4)nc(Cl)nc32)[C@H](O)[C@@H]1O [Compound G, sodium((2R,3S,4R,5R)-5-(2-chloro-6-(cyclohexylamino)-9H-purin-9-yl)-3,4-dihydroxytetrahydrofuran-2-yl)methyl sulfate] | 1.36 nM
3 | O=[N+]([O-])OC[C@H]1O[C@@H](n2cnc3c(NC4CCCCC4)ncnc32)[C@H](O)[C@@H]1O [Compound E, ((2R,3S,4R,5R)-5-(6-(cyclohexylamino)-9H-purin-9-yl)-3,4-dihydroxytetrahydrofuran-2-yl)methyl nitrate] | 1.32 nM
4 | O=[N+]([O-])OC[C@H]1O[C@@H](n2cnc3c(NC4CCOC4)ncnc32)[C@H](O)[C@@H]1O (stereo partly drawn) [Compound D, ((2R,3S,4R,5R)-3,4-dihydroxy-5-(6-(tetrahydrofuran-3-ylamino)-9H-purin-9-yl)tetrahydrofuran-2-yl)methyl nitrate] | 10.6 nM
5 | O=[N+]([O-])OC[C@H]1O[C@@H](n2cnc3c(NC4CC5CCC4C5)ncnc32)[C@H](O)[C@@H]1O (stereo partly drawn) [Compound F, ((2R,3S,4R,5R)-5-(6-(bicycle-[2.2.1]-heptan-2-ylamino)-9H-purin-9-yl)-3,4-dihydroxytetrahydrofuran-2-yl)methyl nitrate] | 1.47 nM
